Assay results from patent publication US20240116898A1, “NOVEL GLUTAMINYL CYCLASE INHIBITORS AND THE USE THEREOF IN TREATMENT OF VARIOUS DISEASES” (LTD "VALENTA-INTELLEKT", priority 2017, published 2024).

Assays:
[1] = tested on: formaldehyde-induced pharyngitis in rats; assay: Rat model of non-infectious pharyngitis (Evans blue exudation); format: in vivo
Procedure: The rats were anesthetized with sodium thiopentone (50 mg/kg, intraperitoneally) and a cannula with a RenaSil® silicone rubber tube (SIL 037, Braintree Scientific, Inc., Braintree, MA) was inserted into the external jugular vein using a heparinized saline solution (40 U/ml).
The Evans Blue dye (Evans Blue, EB) (30 mg/kg) was administered to all the animals intravenously through a catheter; 10 minutes after the EB dye was administered, a 30% formalin solution was applied to the surface of the pharyngeal mucosa as follows: the tongue was slightly pulled out, the pharyngeal area was opened deep in the mouth with blunt forceps and gently, using a sterile cotton pad, the formation solution (50 μl) was applied for 5 seconds each time it is applied. In the intact group thephysiologicla solution was used.
60 minutes after the application of 30% formalin solution, the animals were euthanized by the exsanguination. The head of each rat was perfused with the heparinized saline solution (40 U/ml) to remove the intravascular EB dye.
The degree of the inflammation was assessed by the exudation test of the Evans blue (EB) dye. […] The amount of dye in the fabric was calculated using the standard curve for the Evans blue dye, and was expressed in micrograms of the dye per gram of wet fabric weight (μg/g).
The formaldehyde solution with a concentration of 30% was adminstered to the control group.

[2] = tested on: thermal pain irritation hot plate in Balb/c mice; settings: mouse, in vivo
Procedure: The model of thermal pain irritation “hot plate” was carried out according to the standard procedure [Barrot M. Tests and models of nociception and pain in rodents. […] After 1 hour after the administration of the preparation, the “hot plate” test was carried out. To conduct the “hot plate” test, the mice were placed on the hot plate, the temperature (+55±1° C.) of which is constant.
The time of first manifestations of the pain response in mice (paw licking, jumping) was registered and the mean latent time of the threshold of pain sensitivity (TPS, sec) in each group was calculated.

[3] = tested on: specific pain reaction by chemical irritation of the peritoneum in Balb/c mice; assay: Abdominal constriction test (acetic acid) in mice; format: in vivo, mouse
Procedure: The model of the specific pain reaction by the method of chemical stimulation of peritoneum (“abdominal constriction” test) was carried out according to the standard procedure. To conduct the “abdominal constriction” test, Balb/c mice were intraperitoneally administered with 1% acetic acid in a volume of 10 ml per kg of the animal body weight. […] A quantity of constrictions (convulsive twitching of the abdominal muscles accompanied with stretching hind quarters and arching) was evaluated 15 minutes after the administration of acetic acid.

[4] = tested on: carrageenan-induced rat paw edema; assay: Carrageenan-induced rat paw edema; format: in vivo; settings: 8 mg/kg, 2 hours after carrageenan
Procedure: Experiments were performed on male white nonlinear rats weighing 250-270 g.

[5] = 0.3 mg/kg intragastric 1 hour before acetic acid

O=C(NCCc1cnc[nH]1)C(=O)NCCc1cnc[nH]1 [Compound I, N,N′-bis[2-(1H-imidazol-4-yl)ethyl]oxalamide]
Decrease of the concentration of dye in the tissue compared to the control ([1]; 6 mg/kg): 2.8 times
Decrease of the concentration of dye in the tissue compared to the control ([1]; 18 mg/kg): 6.4 times
Duration of the pharmacological effect [2]: at least 24 hours

O=C(CCCCC(=O)NCCc1cnc[nH]1)NCCc1cnc[nH]1 [Compound VII, N,N′-bis[2-(1H-imidazol-4-yl)ethyl]adipamide]
Quantity of constrictions for 15 minutes [3, 5]: 17.6 ± 2.81

CC(C)(CC(=O)NCCc1cnc[nH]1)CC(=O)NCCc1cnc[nH]1 [Compound IX, N,N′-bis[2-(1H-imidazol-4-yl)ethyl]-3,3-dimethylpentanediamide]
Quantity of constrictions for 15 minutes [3, 5]: 11.6 ± 3.5

O=C(O)Cc1ccccc1Nc1c(Cl)cccc1Cl [Diclofenac, reference compound]
Effect on pharyngitis inflammation (dye concentration) ([1]; 8 mg/kg): no effect
The concentration of the dye in the tissue ([1]; 8 mg/kg intragastric 24 h and 1 h before formaldehyde): 0.112 ± 0.031 µg/mg
Inhibition of edema growth [4]: 42%

O=C(c1ccccc1)c1ccc2n1CCC2C(=O)O (stereo not drawn) [Ketorol, reference compound]
Quantity of constrictions for 15 minutes ([3]; 15 mg/kg): 23.60 ± 1.87
